Results: the NIST ThermoML archive (doi:10.1016/j.jct.2017.02.014)

Tests used:
[1] = refractive index (other wavelength) (dimensionless); xn = mol fraction of the nth substance listed; settings: 100 kPa, Liquid, Wavelength=632.8 nm, minimum deviation angle method, x2 = 0
[2] = refractive index (Na D-line) (dimensionless); settings: 298.15 K; 101.33 kPa; Liquid; Standard Abbe refractometry
[3] = refractive index (other wavelength) (dimensionless); settings: 100 kPa, Liquid, Wavelength=632.8 nm, minimum deviation angle method

CCO [ethanol] + CCCC[n+]1ccccc1.F[B-](F)(F)F
[1]
Settings	refractive index
282.04 K	1.3645
283.11 K	1.364
284.04 K	1.3637
285.65 K	1.363
286.62 K	1.3626
288.17 K	1.362
289.33 K	1.3615
290.8 K	1.3609
291.84 K	1.3604
292.94 K	1.36
293.77 K	1.3596
295.49 K	1.3589
296.51 K	1.3585
297.44 K	1.3581
298.14 K	1.3578

CCCC[n+]1ccccc1.F[B-](F)(F)F [1-butylpyridinium tetrafluoroborate]
Settings	refractive index
[2]	1.4459

[3]
Settings	refractive index
281.73 K	1.4481
282.78 K	1.4478
284.14 K	1.4475
285.74 K	1.4471
286.94 K	1.4468
288.24 K	1.4464
289.38 K	1.4461
290.37 K	1.4458
292.15 K	1.4454
293.41 K	1.4451
295 K	1.4446
296.89 K	1.444

CCO [ethanol]
Settings	refractive index
[2]	1.3596

[3]
Settings	refractive index
282.04 K	1.3645
283.11 K	1.364
284.04 K	1.3637
285.65 K	1.363
286.62 K	1.3626
288.17 K	1.362
289.33 K	1.3615
290.8 K	1.3609
291.84 K	1.3604
292.94 K	1.36
293.77 K	1.3596
295.49 K	1.3589
296.51 K	1.3585
297.44 K	1.3581
298.14 K	1.3578
